The source of these data is patent US9023616B2, “Oil producing microbes and method of modification thereof” (DSM Nutritional Products AG, priority 2006, dated 2015).

The subject of test [1] is Schizochytrium limacinum SR21. Conditions: dose dependant; cited from earlier work.
In test [2] the test system is ONC-T18. As to the kind of experiment: 13C labeled oleic acid incorporation into polyunsaturated fatty acids. The format is cell-based, Thraustochytrium sp. ONC-T18. Conditions: added to culture medium.
For test [3], the system named is ONC-T18. As to the kind of experiment: Fatty acid production antagonist supplementation of ONC-T18 culture, fatty acid profile by FAME GC-FID. The format is cell-based, Thraustochytrium sp. ONC-T18. The method, then: Media containing 25 g/l sea salt and 1 g/l yeast extract was autoclaved at 120° C. for 20 minutes. Sterilized glucose was added to the media at a concentration of 9 g/l. Sethoxydim (Supleco) was dissolved in dimethyl sulfoxide at a concentration of 5 mg/ml was then added to the media at to represent a final concentration of 100 µM. 1 ml of a 24 hour pre-culture of ONC-T 18 that had been cultured in the same media was added. Culturing was carried out in a shaker (130 rpm) for four days at room temperature. After the incubation period, cells were harvested by centrifugation at 4300 rpm for 10 minutes. The cell pellets were then freeze-dried, weighed and the oil was extracted from the cells.
(§1) The lipids were extracted and derivatized to fatty acid methyl esters (FAME) for gas chromatography analysis (GC). Transesterification and extraction was done using 200 mg freeze dried cells, with C19:0 as internal standard, added transesterification reaction mix (methanol:hydrochloric acid:chloroform, 10:1:1) mixed and heated at 90° C. for 2 hours, then allowed to cool at room temperature. FAMEs were extracted by adding 1 ml water, and 2 ml hexane:chloroform (4:1), and allow organic and aqueous phases to separate. The organic layer was extracted and treated with 0.5 g of anhydrous sodium sulfate to remove particulates and residual water. The organic solvents were evaporated under a stream of argon. The FAMEs were re-suspended in 5 ml of iso-octane and analyzed by GC-FID. The percent conversion was calculated by dividing the product produced by the sum of (the product produced plus the substrate added) and then multiplying by 100.
Media containing 6 g/l sea salt, 2 g/l yeast extract, and 8 g/l L-glutamic acid monosodium salt hydrate was autoclaved at 120° C. for 20 minutes. Sterilized D+-glucose was then added to this media at a concentration of 40 g/l. Cerulenin dissolved in ethanol at a concentration of 5 mg/ml was added to 250 ml flask and the solvent was evaporated for 1 hour prior to adding the media to the flask. The amount of cerulenin in the flask represented a final concentration of 20 mg/l. ONC-T18 was then added to the medium from a plate culture and culturing occurred in a shaker (130 rpm) at room temperature for four days. After the incubation period, cells were harvested by centrifugation at 4300 rpm for 10 minutes, washed once with distilled water, and then centrifuged again at 4300 rpm for 10 minutes. The cell pellets were then freeze-dried, weighed and the oil was extracted from the cells.
as §1, with “produced+the” for “produced plus the”
Media containing 6 g/l sea salt, 2 g/l yeast extract, and 8 g/l L-glutamic acid monosodium salt hydrate was autoclaved at 120° C. for 20 minutes. Sterilized D+-glucose wad then added at a concentration of 5 g/l or was not added to the media. Oleic acid was added to the media to represent a final concentration of 2 ml/l. […]

[4] abbreviates: oleic acid in combination with glucoase.
Setting [5] is: presence of the antagonist, oleic acid without glucose.

“Also recorded” adds a separate entry of the source.

With `Cc1ccc(C(=O)O)cc1` [p-toluic acid], in test [1], the “EPA concentration (in words)” value is “increasing the EPA concentration” and the “omega-6 DPA concentration (in words)” value is on record as “reducing the omega-6 DPA concentration”.

Consider ^13C labeled oleic acid, for which the “fate of 13C carbon from enriched oleic acid (in words)” value in the test with ONC-T18 [2] was “found in subsequent polyunsaturated fatty acids”.

With `CCCCCCCC/C=C\CCCCCCCC(=O)O` [oleic acid], in the test with ONC-T18 [3] (antagonist added to medium), the “DHA accumulated in ONC-T18, change versus control (in words)” value is “most of the oleic acid was converted into DHA; also recorded: more DHA content was observed; also recorded: increase in the content and proportion of DHA”; the “EPA in ONC-T18 fatty acid profile, change versus control (in words)” value is listed as “elevation of the EPA content; also recorded: elevated level of EPA”. In addition, in the test with ONC-T18 [3] (setting [4]), the “adrenic acid, lipid as percentage of total fatty acid” value (shortened to “adrenic acid, lipid as percentage”) is reported as 0.28%; the “arachidic acid, lipid as percentage of total fatty acid” value (shortened to “arachidic acid, lipid as percentage”) is 0.34%; the “arachidonic acid, lipid as percentage of total fatty acid” value (“arachidonic acid, lipid as percentage” for short) was 0.46%; the “behenic acid, lipid as percentage of total fatty acid” value (from here on “behenic acid, lipid as percentage”) was found to be 0.00%. In the test on ONC-T18 [3] (setting [4]), the “docosadienoic acid, lipid as percentage of total fatty acid” value (from here on “docosadienoic acid, lipid as percentage”) is on record as 0.43%; the “docosahexaenoic acid, lipid as percentage of total fatty acid” value came out at 24.65%; the “docosapentaenoic acid n-3, lipid as percentage of total fatty acid” value turned out to be 0.39%; the “docosapentaenoic acid n-6, lipid as percentage of total fatty acid” value was determined as 6.46%. Also, in the test on ONC-T18 [3] (setting [4]), the “eicosadienoic acid, lipid as percentage of total fatty acid” value (“eicosadienoic acid, lipid as percentage” below) was 0.36%; the “eicosapentaenoic acid, lipid as percentage of total fatty acid” value was 2.60%; the “eicosatetraenoic acid, lipid as percentage of total fatty acid” value was determined as 0.24%; the “eicosatrienoic acid, lipid as percentage of total fatty acid” value (shortened to “eicosatrienoic acid, lipid as percentage”) was found to be 0.00%. Besides, in the test on ONC-T18 [3] (setting [4]), the “eicosenoic acid, lipid as percentage of total fatty acid” value (from here on “eicosenoic acid, lipid as percentage”) is listed as 0.30%; the “heneicosapentaenoic acid, lipid as percentage of total fatty acid” value is on record as 0.79%; the “hexacosanoic acid, lipid as percentage of total fatty acid” value (“hexacosanoic acid, lipid as percentage” for short) is 0.00%; the “homo-gamma-linolenic acid, lipid as percentage of total fatty acid” value was found to be 0.30%. In addition, in the test with ONC-T18 [3] (setting [4]), the “lignoceric acid, lipid as percentage of total fatty acid” value (shortened to “lignoceric acid, lipid as percentage”) came out at 0.00%; the “margaric acid, lipid as percentage of total fatty acid” value (from here on “margaric acid, lipid as percentage”) came out at 0.17%; the “myristic acid, lipid as percentage of total fatty acid” value (shortened to “myristic acid, lipid as percentage”) turned out to be 8.04%; the “myristoleic acid, lipid as percentage of total fatty acid” value (“myristoleic acid, lipid as percentage” below) is 0.00%. For the same compound, in the test with ONC-T18 [3] (setting [4]), the “nervonic acid, lipid as percentage of total fatty acid” value (“nervonic acid, lipid as percentage” for short) stood at 0.00%; the “oleic acid, lipid as percentage of total fatty acid” value was 9.49%; the “palmitic acid, lipid as percentage of total fatty acid” value (shortened to “palmitic acid, lipid as percentage”) is on record as 33.18%; the “palmitoleic acid, lipid as percentage of total fatty acid” value (“palmitoleic acid, lipid as percentage” below) is listed as 4.22%. Further, in the test with ONC-T18 [3] (setting [4]), the “pentadecanoic acid, lipid as percentage of total fatty acid” value (“pentadecanoic acid, lipid as percentage” for short) is reported as 0.73%; the “pentadecenoic acid, lipid as percentage of total fatty acid” value (“pentadecenoic acid, lipid as percentage” below) came out at 0.00%; the “stearic acid, lipid as percentage of total fatty acid” value (shortened to “stearic acid, lipid as percentage”) amounted to 1.60%; the “vaccenic acid, lipid as percentage of total fatty acid” value (shortened to “vaccenic acid, lipid as percentage”) is 4.45%. In addition, in the test with ONC-T18 [3] (setting [5]), the “adrenic acid, lipid as percentage” value was determined as 0.60%; the “arachidic acid, lipid as percentage” value is reported as 0.00%; the “arachidonic acid, lipid as percentage” value stood at 0.72%; the “behenic acid, lipid as percentage” value is 0.00%. Also, in the test on ONC-T18 [3] (setting [5]), the “docosadienoic acid, lipid as percentage” value is on record as 0.68%; the “docosahexaenoic acid, lipid as percentage of total fatty acid” value came to 33.16%; the “docosapentaenoic acid n-3, lipid as percentage of total fatty acid” value came out at 0.39%; the “docosapentaenoic acid n-6, lipid as percentage of total fatty acid” value was determined as 7.58%. Also, in the test on ONC-T18 [3] (setting [5]), the “eicosadienoic acid, lipid as percentage” value amounted to 0.51%; the “eicosapentaenoic acid, lipid as percentage of total fatty acid” value worked out at 5.47%; the “eicosatetraenoic acid, lipid as percentage of total fatty acid” value worked out at 0.00%; the “eicosatrienoic acid, lipid as percentage” value stood at 0.00%. Also, in the test with ONC-T18 [3] (setting [5]), the “eicosenoic acid, lipid as percentage” value was 0.00%; the “heneicosapentaenoic acid, lipid as percentage of total fatty acid” value was found to be 0.20%; the “hexacosanoic acid, lipid as percentage” value turned out to be 0.00%; the “homo-gamma-linolenic acid, lipid as percentage of total fatty acid” value turned out to be 0.61%. In the test on ONC-T18 [3] (setting [5]), the “lignoceric acid, lipid as percentage” value is recorded as 0.00%; the “margaric acid, lipid as percentage” value is on record as 0.28%; the “myristic acid, lipid as percentage” value is reported as 1.38%; the “myristoleic acid, lipid as percentage” value came out at 0.00%. For the same compound, in the test with ONC-T18 [3] (setting [5]), the “nervonic acid, lipid as percentage” value is listed as 0.00%; the “oleic acid, lipid as percentage of total fatty acid” value was 25.36%; the “palmitic acid, lipid as percentage” value worked out at 16.67%; the “palmitoleic acid, lipid as percentage” value was found to be 1.06%. In the test with ONC-T18 [3] (setting [5]), the “pentadecanoic acid, lipid as percentage” value is 0.49%; the “pentadecenoic acid, lipid as percentage” value was 0.00%; the “stearic acid, lipid as percentage” value is on record as 1.56%; the “vaccenic acid, lipid as percentage” value was determined as 2.68%.

Regarding `CCC/C(=N\OCC)C1=C(O)CC(CC(C)SCC)CC1=O` (stereo not drawn) [sethoxydim], in the test on ONC-T18 [3] (antagonist added to medium), the “DHA accumulated in ONC-T18, change versus control (in words)” value was “increase in the content and proportion of DHA”. In the test on ONC-T18 [3] (setting [5]), the “adrenic acid, lipid as percentage” value is 0.00%; the “arachidic acid, lipid as percentage” value came to 0.2%; the “arachidonic acid, lipid as percentage” value amounted to 0.20%; the “behenic acid, lipid as percentage” value was 0.00%. In the test with ONC-T18 [3] (setting [5]), the “docosadienoic acid, lipid as percentage” value turned out to be 0.00%; the “docosahexaenoic acid, lipid as percentage of total fatty acid” value came to 19.31%; the “docosapentaenoic acid n-3, lipid as percentage of total fatty acid” value worked out at 0.24%; the “docosapentaenoic acid n-6, lipid as percentage of total fatty acid” value is listed as 5.26%. Also, in the test on ONC-T18 [3] (setting [5]), the “eicosadienoic acid, lipid as percentage” value is on record as 0.14%; the “eicosapentaenoic acid, lipid as percentage of total fatty acid” value turned out to be 0.78%; the “eicosatetraenoic acid, lipid as percentage of total fatty acid” value stood at 0.37%; the “eicosatrienoic acid, lipid as percentage” value was determined as 0.00%. In the test on ONC-T18 [3] (setting [5]), the “eicosenoic acid, lipid as percentage” value stood at 0.00%; the “heneicosapentaenoic acid, lipid as percentage of total fatty acid” value was 1.09%; the “hexacosanoic acid, lipid as percentage” value turned out to be 0.20%; the “homo-gamma-linolenic acid, lipid as percentage of total fatty acid” value is given as 0.10%. Also, in the test on ONC-T18 [3] (setting [5]), the “lignoceric acid, lipid as percentage” value is listed as 0.00%; the “margaric acid, lipid as percentage” value is 1.49%; the “myristic acid, lipid as percentage” value worked out at 10.97%; the “myristoleic acid, lipid as percentage” value was found to be 0.03%. In the test with ONC-T18 [3] (setting [5]), the “nervonic acid, lipid as percentage” value was found to be 0.00%; the “oleic acid, lipid as percentage of total fatty acid” value is listed as 0.18%; the “palmitic acid, lipid as percentage” value is listed as 40.52%; the “palmitoleic acid, lipid as percentage” value turned out to be 9.18%. Besides, in the test on ONC-T18 [3] (setting [5]), the “pentadecanoic acid, lipid as percentage” value was 5.5%; the “pentadecenoic acid, lipid as percentage” value worked out at 0.53%; the “stearic acid, lipid as percentage” value stood at 1.45%; the “vaccenic acid, lipid as percentage” value is given as 2.48%.
